Tested on: VEGF
Test: Effect on production of VEGF: amount of VEGF secreted in culture supernatant, determined by ELISA
Assay type: cell-based
Conditions: normal human newborn preputial epidermal keratinocytes (NHEK), 16 hours, control defined as 1
Procedure: Normal human newborn preputial epidermal keratinocytes (Kurabo Industries Ltd.: frozen NHEK (F) Lot. No. 061130-902) were used in a test. The cells were inoculated into three six-well microplates at 2×10^4 cells/mL per well. Culture was carried out in Defined keratinocyte-SFM (SFM medium, Gibco) under conditions of 2% CO2 and 37° C. After the cell density reached 50 to 60% confluence, the medium was exchanged for additive-free Defined keratinocyte-SFM medium (SFM (−) medium). The cells were conditioned to the SFM (−) medium for 24 hours, and the medium was then exchanged for an SFM (−) medium supplemented with an arbitrary concentration of the triterpenoid saponin obtained in Example 1. Then, the test was started.
It should be noted that a compound-free SFM (−) medium was used as a negative control. 16 hours after the start of the test, the media were collected, and the amounts of VEGF secreted in the supernatants of the cultures were determined using an ELISA kit (R&D Systems). The amount of VEGF produced in the control was defined as 1, and relative values to the control value were used for evaluation.

Row | SMILES | Relative value of secreted VEGF amount (20 μg/mL) | Relative value of secreted VEGF amount (100 μg/mL) | Relative value of secreted VEGF amount (200 μg/mL)
1 | CC(=O)O[C@H]([C@H]1C[C@@H](C)[C@H]2[C@@](O)(O1)[C@H](O)[C@@]1(C)C3=CCC4C(C)(C)[C@@H](O[C@@H]5OC[C@@H](O)[C@@H](O)C5O)CC[C@@]45C[C@@]35CC[C@]21C)C(C)(C)O (stereo partly drawn) [Compound 1, 7,8-Didehydro-24-O-acetylhydroshengmanol-3-O-β-xyloside] | 2.19 | 3.65 | 5.69
2 | C[C@@H]1C[C@H]2O[C@]3(O[C@H]2C(C)(C)O)[C@H]1[C@@]1(C)CC[C@@]24C[C@@]25CC[C@H](O[C@@H]2OC[C@@H](O)[C@@H](O)C2O)C(C)(C)C5CC=C4[C@]1(C)[C@H]3O (stereo partly drawn) [Compound 2, 24-epi-7,8-Didehydrocimigenol-3-xyloside] | 2.32 | 0.40 | –
3 | C[C@H](CC(=O)C1OC1(C)C)[C@H]1C(=O)C[C@@]2(C)C3=CCC4C(C)(C)[C@@H](O[C@@H]5OC[C@@H](O)[C@@H](O)C5O)CC[C@@]45C[C@@]35C(O)C[C@]12C (some centres unmarked) [Compound 3, Cimicifugoside H-1] | 1.19 | 2.50 | 2.82
